Test results taken from patent US5695738A, “Steroidal C-glycosides” (Glycomed Incorporated, priority 1995, dated 1997).

System: murine skin inflammation; swelling caused by AA
Test: arachidonic acid (AA), murine skin inflammation (ear) model, topical administration
Format: in vivo
Conditions: for percent inhibition of swelling caused by AA alone: 10 uL of 100 mg/mL in CHCl3 (lithocholic acid in CHCl3:CH3OH 1:1) applied to the ear immediately after AA, 90 minutes; for % Inhibition of Swelling: topical, 1 mg applied to the ear immediately after arachidonic acid, 6 mm ear disk weighed at 90 minutes, average of two experiments (Table 1)
Experimental: Briefly, the compounds at an appropriate concentration are dissolved in a suitable solvent, and applied to a rodent ear immediately following application of arachidonic acid (AA). A control of AA alone is run. About 90 minutes later, a 6 mm disk of each ear is removed and weighed. The percent inhibition of swelling caused by AA alone is calculated for the steroidal C-glycoside derivatives of the invention and compared to other steroids.
Using the arachidonic acid (AA), murine skin inflammation model, described by Harris, R. R. et al. (Skin Pharmacol 1990; 3:29-40) the anti-inflammatory activity of (5) was tested. For comparison, Lithocholic acid and Methyl lithocholate, were also tested. Compounds were dissolved at 100 mg/mL in CHCl3, except for lithocholic acid which was dissolved in CHCl3 :CH3 OH (1:1); 10 uL of each compound was applied to the ear immediately following arachidonic acid (AA). AA was applied alone, or followed immediately with methyl lithocholate, ketone (12) alkene (11) or compound (5). 90 minutes later, a 6 mm disk of each ear was removed and weighed.

SMILES | percent inhibition of swelling caused by AA alone | % Inhibition of Swelling
C[C@H](CCC(=O)O)[C@H]1CC[C@H]2[C@@H]3CC[C@@H]4C[C@H](O)CC[C@]4(C)[C@H]3CC[C@]12C [Lithocholic acid] | ~22.5% | 30.5%
COC(=O)CC[C@@H](C)[C@H]1CC[C@H]2[C@@H]3CC[C@@H]4C[C@H](OCC(O)(CO)C[C@@H]5O[C@@H](C)[C@@H](O)[C@@H](O)[C@@H]5O)CC[C@]4(C)[C@H]3CC[C@]12C (stereo partly drawn) [compound (5), 1-[3-O-(Lithocholic acid)]-2-(alpha-L-C-methylfucopyranose)-2',3'-propanediol methyl ester] | about 48.5% | 48.5%
COC(=O)CC[C@@H](C)[C@H]1CC[C@H]2[C@@H]3CC[C@@H]4C[C@H](O)CC[C@]4(C)[C@H]3CC[C@]12C [methyl lithocholate] | about 17.5% | 17.5%
